According to patent publication US8865623B2, “Herbicidally active cyclic diones and derivatives thereof, processes for their preparation, compositions, and method of controlling weeds” (Syngenta Limited, priority 2009, dated 2014):

Key:
Assay type in all cases: in vivo
[1] = system: Alopecurus myosuroides (ALOMY); assay: Pre-emergence herbicidal activity, glasshouse pot test; conditions: Alopecurus myosuroides, 312 h; Rate 250 g/ha; pre-emergence spray; evaluated after 13 days; read-out: Pre-emergence activity ALOMY (100=total damage to plant; 0=no damage to plant)
Experimental: (§1) Seeds of a variety of test species were sown in standard soil in pots. After cultivation for one day (pre-emergence) or after 8 days cultivation (post-emergence) under controlled conditions in a glasshouse (at 24/16° C., day/night; 14 hours light; 65% humidity), the plants were sprayed with an aqueous spray solution derived from the formulation of the technical active ingredient in acetone/water (50:50) solution containing 0.5% Tween 20 (polyoxyethelyene sorbitan monolaurate, CAS RN 9005-64-5). The test plants were then grown in a glasshouse under controlled conditions in a glasshouse (at 24/16° C., day/night; 14 hours light; 65% humidity) and watered twice daily. After 13 days for pre and post-emergence, the test was evaluated (100=total damage to plant; 0=no damage to plant).
(§2) Lolium perenne (LOLPE), Alopecurus myosuroides (ALOMY), Echinochloa crus-galli (ECHCG), and Avena fatua (AVEFA).

Avena fatua (AVEFA) [2] = assay: as above; conditions: Avena fatua, 312 h; Rate 250 g/ha; pre-emergence spray; evaluated after 13 days; read-out: Pre-emergence activity AVEFA (100=total damage to plant; 0=no damage to plant)
Experimental: as §1, §2

[3] = system: Echinochloa crus-galli (ECHCG); assay: as above; conditions: Echinochloa crus-galli, 312 h; Rate 250 g/ha; pre-emergence spray; evaluated after 13 days; read-out: Pre-emergence activity ECHCG (100=total damage to plant; 0=no damage to plant)
Experimental: as §1, §2

Lolium perenne (LOLPE) [4] = assay: as above; conditions: Lolium perenne, 312 h; Rate 250 g/ha; pre-emergence spray; evaluated after 13 days; read-out: Pre-emergence activity LOLPE (100=total damage to plant; 0=no damage to plant)
Experimental: as §1, §2

[5] = system: Alopecurus myosuroides (ALOMY); assay: Post-emergence herbicidal activity, glasshouse pot test; conditions: Alopecurus myosuroides, 312 h, rate 250 g/ha, evaluated after 13 days, glasshouse, read-out: Post-emergence activity ALOMY (100=total damage to plant; 0=no damage to plant)
Experimental: as §1, §2

Avena fatua (AVEFA) [6] = assay: as above; conditions: Avena fatua, 312 h, rate 250 g/ha, evaluated after 13 days, glasshouse, read-out: Post-emergence activity AVEFA (100=total damage to plant; 0=no damage to plant)
Experimental: as §1, §2

[7] = system: Echinochloa crus-galli (ECHCG); assay: as above; conditions: Echinochloa crus-galli, 312 h, rate 250 g/ha, evaluated after 13 days, glasshouse, read-out: Post-emergence activity ECHCG (100=total damage to plant; 0=no damage to plant)
Experimental: as §1, §2

Lolium perenne (LOLPE) [8] = assay: as above; conditions: Lolium perenne, 312 h, rate 250 g/ha, evaluated after 13 days, glasshouse, read-out: Post-emergence activity LOLPE (100=total damage to plant; 0=no damage to plant)
Experimental: as §1, §2

Structure (SMILES)	pest or weed control at 250 g/ha [1] [%]	pest or weed control at 250 g/ha (Avena fatua (AVEFA) [2]) [%]	pest or weed control at 250 g/ha [3] [%]	pest or weed control at 250 g/ha (Lolium perenne (LOLPE) [4]) [%]	pest or weed control at 250 g/ha [5] [%]	pest or weed control at 250 g/ha (Avena fatua (AVEFA) [6]) [%]	pest or weed control at 250 g/ha [7] [%]	pest or weed control at 250 g/ha (Lolium perenne (LOLPE) [8]) [%]
CCc1ccc(Oc2ccc(Cl)cc2)cc1C1=C(O)[C@H]2CC[C@H](C2)C1=O (single isomer, unassigned) [Example A-88]	80	60	100	100	70	70	90	50
CCc1ccc(Oc2ccc(Cl)cc2F)cc1C1=C(O)[C@H]2CC[C@H](C2)C1=O (single isomer, unassigned) [Example A-89]	80	80	100	100	90	90	100	60
CCc1ccc(Oc2ccc(Cl)cc2Cl)cc1C1=C(O)[C@H]2CC[C@H](C2)C1=O (single isomer, unassigned) [Example A-90]	70	70	100	90	60	30	90	80
CCc1ccc(Oc2ccc(Br)cc2)cc1C1=C(O)[C@H]2CC[C@H](C2)C1=O (single isomer, unassigned) [Example A-91]	80	70	100	100	90	90	100	80
CCc1ccc(Oc2ccc(F)cc2)cc1C1=C(O)[C@H]2CC[C@H](C2)C1=O (single isomer, unassigned) [Example A-92]	40	30	100	90	20	10	80	30
CCc1ccc(Oc2ccc(Cl)c(F)c2)cc1C1=C(O)[C@@H]2CC[C@](C)(C1=O)C2(C)C (single isomer, unassigned) [Example A-93]	60	60	100	90	60	20	50	20
CCc1ccc(Oc2ccc(Cl)cc2Cl)cc1C1=C(O)[C@@H]2CC[C@](C)(C1=O)C2(C)C (single isomer, unassigned) [Example A-94]	40	20	90	100	10	0	40	20
CCc1ccc(Oc2ccc(Cl)cc2F)cc1C1=C(O)[C@@H]2CC[C@](C)(C1=O)C2(C)C (single isomer, unassigned) [Example A-95]	70	80	90	90	60	80	80	50
CCc1ccc(Oc2ccc(Cl)cc2)cc1C1=C(O)[C@@H]2CC[C@](C)(C1=O)C2(C)C (single isomer, unassigned) [Example A-96]	70	40	90	100	60	20	60	30
Cc1ccc(Oc2ccc(Cl)cc2)cc1C1=C(O)C(C)(C)OC(C)(C)C1=O [Example A-1]	0	0	0		20	0	60	
Cc1ccc(Oc2ccc(Cl)cc2Cl)cc1C1=C(O)C(C)(C)OC(C)(C)C1=O [Example A-2]	0	0	0		60	50	90	
CCc1ccc(Oc2ccc(Cl)cc2)cc1C1=C(O)C(C)(C)OC(C)(C)C1=O [Example A-4]	40	0	100		80	0	100	
CCc1ccc(Oc2cccc(Cl)c2)cc1C1=C(O)C(C)(C)OC(C)(C)C1=O [Example A-5]	0	0	90		20	0	90	
CCc1ccc(Oc2ccccc2Cl)cc1C1=C(O)C(C)(C)OC(C)(C)C1=O [Example A-6]	0	0	30		0	0	70	
CCc1ccc(Oc2ccc(Br)cc2F)cc1C1=C(O)C(C)(C)OC(C)(C)C1=O [Example A-7]	60	60	100		90	70	100	
CCc1ccc(Oc2ccc(Br)cc2)cc1C1=C(O)C(C)(C)OC(C)(C)C1=O [Example A-8]	60	10	100	100	100	0	100	100
CCc1ccc(Oc2ccc(Br)cc2Cl)cc1C1=C(O)C(C)(C)OC(C)(C)C1=O [Example A-9]	60	30	100	80	90	100	100	80
CCc1ccc(Oc2ccc(F)c(C)c2)cc1C1=C(O)C(C)(C)OC(C)(C)C1=O [Example A-179]	0	0		0	0	0	20	20
CCc1ccc(Oc2ccc(Cl)cc2C)cc1C1=C(O)C(C)(C)OC(C)(C)C1=O [Example A-180]	0	0		0	0	0	30	10
CCc1ccc(Oc2ccc(OC(F)(F)F)cc2)cc1C1=C(O)C(C)(C)OC(C)(C)C1=O [Example A-242]	70	40		80	100	100	100	100
CCc1ccc(Oc2cnc3cc(Cl)ccc3n2)cc1C1=C(O)[C@@H]2CC[C@](C)(C1=O)C2(C)C [Example A-243]	90	80		100	100	100	100	100
